Our source for the EC50 values is patent publication US8846739B2, “TGR5 agonists” (Exelixis Patent Company LLC, priority 2009, dated 2014).

The target of one assay is T1, h-TGR5 (Homo sapiens, UniProt Q8TDU6).
T1 sequence (Q8TDU6 1-330): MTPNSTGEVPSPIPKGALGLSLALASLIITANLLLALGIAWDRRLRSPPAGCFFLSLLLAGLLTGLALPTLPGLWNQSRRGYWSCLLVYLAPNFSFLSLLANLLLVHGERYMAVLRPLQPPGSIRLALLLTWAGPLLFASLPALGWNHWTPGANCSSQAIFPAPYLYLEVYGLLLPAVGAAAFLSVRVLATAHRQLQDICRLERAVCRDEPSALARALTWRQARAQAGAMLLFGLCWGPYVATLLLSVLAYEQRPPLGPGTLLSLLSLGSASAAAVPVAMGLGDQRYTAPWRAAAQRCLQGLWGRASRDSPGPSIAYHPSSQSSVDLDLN
Put plainly: TGR5 cAMP Assay using Cisbio cAMP Dynamic 2 htrf assay kit. Format: cell-based. As to conditions: hTGR5CRE-luc HEK 293 cells. On the procedure: Compounds were diluted in DPBS with 5% DMSO (8-point serial dilution by half logs) in a 96-well plate and 1 μL was transferred to a 384-well assay plate in quadruplicate. The d2-cAMP and anti-cAMP Ab-cryptate stock solution were prepared as per the instructions in the Cisbio™ (Bedford, Mass.) kit. Cells (hTGR5CRE-luc HEK 293 and mTGR5CRE-luc HEK 293) were harvested using cell dissociation buffer and resuspended in DPBS. Cells were adjusted to 0.44×10^6 cells/ml followed by addition of IBMX to a final concentration of 0.5 mM. The cells were then mixed with d2-cAMP solution (7.1 mL cells+100 ul d2-cAMP) and 4000 cells (9 μL) were transferred to each well of the 384-well assay plate. Cells without d2-cAMP were added to eight wells as a negative control. The plate was covered and incubated at room temp for 30 min. Then 10 μL of Ab-cryptate solution was added to each well of the assay plate and incubated for 1 hr. The plate was read on an EnVision™ plate reader (Perkin-Elmer, Waltham, Mass.) and the DeltaF value was calculated as per the instructions in the Cisbio™ kit.
(§1) In the following tables, ECso values determined according to the TGR5 cAMP Assay are noted (cAMP); EC50 values determined according to the TGR5/CRE-Luciferiase Assay are noted (CRE-Luc).

In another assay the target is T2, human TGR5 (h-TGR5) (Homo sapiens, UniProt Q8TDU6).
T2 sequence (Q8TDU6 1-330): T1 sequence (Q8TDU6 1-330)
The assay can be described thus: TGR5/CRE-Luciferase Assay. It counts as cell-based. Particulars: HEK 293 hTGR5/CRE-Luc cells, 6 hours incubation, read-out: CRE-Luc Agonist (EC50). As to the method: HEK 293 cells stably expressing human TGR5 (h-TGR5) or mouse TGR5 (m-TGR5) were generated from HEK 293 CRE-Luciferase cells. The day before the assay, HEK 293 hTGR5/CRE-Luc cells were plated in DMEM in a 384 well assay plate at a density of 25 k cells/45 μL per well and grown for 18-20 hours. Compounds were serially diluted in DMEM containing 5% DMSO and 5 µL of compound or media alone was transferred to each well and plates were incubated for 6 hours. Following incubation, 30 μL of lysis/luciferase buffer was added to each well. The luciferase activity was then measured on the EnVision™ plate reader and the dose response data was analyzed using ActivityBase.
as §1

In the case of `COc1cc(C(C)(C)c2cnc(SCc3c(F)cc(S(=O)(=O)N(CCO)CCC[N+](C)(C)C)cc3F)n2-c2ccc(F)cc2)ccc1Cl` [Compound 12f, 3-(4-((5-(2-(4-Chloro-3-methoxyphenyl)propan-2-yl)-1-(4-fluorophenyl)-1H-imidazol-2-ylthio)methyl)-3,5-difluoro-N-(2-hydroxyethyl)phenylsulfonamido)-N,N,N-trimethylpropan-1-aminium 2,2,2-trifluoroacetate], the EC50 at h-TGR5 and on human TGR5 (h-TGR5) was < 100 nM in each case.
For the molecule `COc1cc(C(C)(C)c2cnc(SCc3c(F)cc(S(=O)(=O)N(CCCO)CCC[N+](C)(C)C)cc3F)n2-c2ccc(F)cc2)ccc1Cl` [Compound 12g, 3-(4-((5-(2-(4-chloro-3-methoxyphenyl)propan-2-yl)-1-(4-fluorophenyl)-1H-imidazol-2-ylthio)methyl)-3,5-difluoro-N-(3-hydroxypropyl)phenylsulfonamido)-N,N,N-trimethylpropan-1-aminium 2,2,2-trifluoroacetate], the EC50 at h-TGR5 and at human TGR5 (h-TGR5) was < 100 nM each time.
In the case of `COc1cc(C(C)(C)c2cnc(SCc3c(F)cc(S(=O)(=O)N(CCC[N+](C)(C)C)CC(N)=O)cc3F)n2-c2ccc(F)cc2)ccc1Cl` [Compound 12h, 3-(N-(2-amino-2-oxoethyl)-4-((5-(2-(4-chloro-3-methoxyphenyl)propan-2-yl)-1-(4-fluorophenyl)-1H-imidazol-2-ylthio)methyl)-3,5-difluorophenylsulfonamido)-N,N,N-trimethylpropan-1-aminium 2,2,2-trifluoroacetate], the EC50 on h-TGR5 and at human TGR5 (h-TGR5) was < 100 nM in each case.
`CC(C)(c1ccc(Cl)c(O)c1)c1cnc(SCc2c(F)cc(S(=O)(=O)NCCC[N+](C)(C)C)cc2F)n1-c1ccc(F)cc1` [Compound 13a, 3-(4-((5-(2-(4-chloro-3-hydroxyphenyl)propan-2-yl)-1-(4-fluorophenyl)-1H-imidazol-2-ylthio)methyl)-3,5-difluorophenylsulfonamido)-N,N,N-trimethylpropan-1-aminium 2,2,2-trifluoroacetate]: the EC50 on h-TGR5 and at human TGR5 (h-TGR5) was 100 to 1000 nM throughout.
For `COC(=O)[C@@H](C)N(CCC[N+](C)(C)C)S(=O)(=O)c1cc(F)c(CSc2ncc(C(C)(C)c3ccc(Cl)c(OC)c3)n2-c2ccc(F)cc2)c(F)c1` [Compound 14, (R)-3-(4-((5-(2-(4-chloro-3-methoxyphenyl)propan-2-yl)-1-(4-fluorophenyl)-1H-imidazol-2-ylthio)methyl)-3,5-difluoro-N-(1-methoxy-1-oxopropan-2-yl)phenylsulfonamido)-N,N,N-trimethylpropan-1-aminium 2,2,2-trifluoroacetate], the EC50 at h-TGR5 and at human TGR5 (h-TGR5) was < 100 nM throughout.
For the molecule `COc1cc(C(C)(C)c2cnc(SCc3c(F)cc(S(=O)(=O)N(CCC[N+](C)(C)C)[C@H](C)C(=O)O)cc3F)n2-c2ccc(F)cc2)ccc1Cl` [Compound 14a, (R)-3-(N-(1-carboxyethyl)-4-((5-(2-(4-chloro-3-methoxyphenyl)propan-2-yl)-1-(4-fluorophenyl)-1H-imidazol-2-ylthio)methyl)-3,5-difluorophenylsulfonamido)-N,N,N-trimethylpropan-1-aminium 2,2,2-trifluoroacetate], the EC50 at h-TGR5 and at human TGR5 (h-TGR5) was < 100 nM each time.
As to `COc1cc(C(C)(C)c2cnc(SCc3c(F)cc(S(=O)(=O)N(CCCC[N+](C)(C)C)[C@H](C)C(=O)O)cc3Cl)n2-c2ccc(F)cc2)ccc1Cl` [Compound 14aa, 4-([(1R)-1-carboxyethyl]{[3-chloro-4-({[5-{1-[4-chloro-3-(methyloxy)phenyl]-1-methylethyl}-1-(4-fluorophenyl)-1H-imidazol-2-yl]thio}methyl)-5-fluorophenyl]sulfonyl}amino)-N,N,N-trimethylbutan-1-aminium], the EC50 on h-TGR5 and at human TGR5 (h-TGR5) was < 100 nM throughout.
For the molecule `CC[C@H](C(=O)O)N(CCC[N+](C)(C)C)S(=O)(=O)c1cc(F)c(CSc2ncc(C(C)(C)c3ccc(Cl)c(OC)c3)n2-c2ccc(F)cc2)c(Cl)c1` [Compound 14ab, 3-([(1R)-1-carboxypropyl]{[3-chloro-4-({[5-{1-[4-chloro-3-(methyloxy)phenyl]-1-methylethyl}-1-(4-fluorophenyl)-1H-imidazol-2-yl]thio}methyl)-5-fluorophenyl]sulfonyl}amino)-N,N,N-trimethylpropan-1-aminium], the EC50 at h-TGR5 and on human TGR5 (h-TGR5) was < 100 nM each time.
`COc1cc(C(C)(C)c2cnc(SCc3c(F)cc(S(=O)(=O)N(CCC[N+](C)(C)C)[C@H](C(=O)O)[C@@H](C)O)cc3Cl)n2-c2ccc(F)cc2)ccc1Cl` [Compound 14ac, 3-([(1S,2R)-1-carboxy-2-hydroxypropyl]{[3-chloro-4-({[5-{1-[4-chloro-3-(methyloxy)phenyl]-1-methylethyl}-1-(4-fluorophenyl)-1H-imidazol-2-yl]thio}methyl)-5-fluorophenyl]sulfonyl}amino)-N,N,N-trimethylpropan-1-aminium]: the EC50 at h-TGR5 and on human TGR5 (h-TGR5) was < 100 nM in each case.
As to `COc1cc(C(C)(C)c2cnc(SCc3c(F)cc(S(=O)(=O)N(CCCCC[N+](C)(C)C)[C@H](C)C(=O)O)cc3Cl)n2-c2ccc(F)cc2)ccc1Cl` [Compound 14ad, 5-([(1R)-1-carboxyethyl]{[3-chloro-4-({[5-{1-[4-chloro-3-(methyloxy)phenyl]-1-methylethyl}-1-(4-fluorophenyl)-1H-imidazol-2-yl]thio}methyl)-5-fluorophenyl]sulfonyl}amino)-N,N,N-trimethylpentan-1-aminium], the EC50 at h-TGR5 and on human TGR5 (h-TGR5) was < 100 nM in each case.
For `COc1ccc(CN(CCC[N+](C)(C)C)S(=O)(=O)c2cc(F)c(CSc3ncc(C(C)(C)c4ccc(Cl)c(OC)c4)n3-c3ccc(F)cc3)c(F)c2)cc1` [Compound 14ae, 3-({[4-({[5-{1-[4-chloro-3-(methyloxy)phenyl]-1-methylethyl}-1-(4-fluorophenyl)-1H-imidazol-2-yl]thio}methyl)-3,5-difluorophenyl]sulfonyl}{[4-(methyloxy)phenyl]methyl}amino)-N,N,N-trimethylpropan-1-aminium], the EC50 on h-TGR5 was 100 to 1000 nM; on human TGR5 (h-TGR5), < 100 nM.
Turning to `COC(=O)C(C)(C)N(CCC[N+](C)(C)C)S(=O)(=O)c1cc(F)c(CSc2ncc(C(C)(C)c3ccc(Cl)c(OC)c3)n2-c2ccc(F)cc2)c(F)c1` [Compound 14af, 3-({[4-({[5-{1-[4-chloro-3-(methyloxy)phenyl]-1-methylethyl}-1-(4-fluorophenyl)-1H-imidazol-2-yl]thio}methyl)-3,5-difluorophenyl]sulfonyl}[1,1-dlmethyl-2-(methyloxy)-2-oxoethyl]amino)-N,N,N-trimethylpropan-1-aminium], the EC50 on h-TGR5 and at human TGR5 (h-TGR5) was < 100 nM in each case.
For the molecule `COc1cc(C(C)(C)c2cnc(SCc3c(F)cc(S(=O)(=O)N(CCC[N+](C)(C)C)[C@@H](CCC(=O)O)C(=O)O)cc3F)n2-c2ccc(F)cc2)ccc1Cl` [Compound 14ag, (S)-3-(4-((5-(2-(4-chloro-3-methoxyphenyl)propan-2-yl)-1-(4-fluorophenyl)-1H-imidazol-2-ylthio)methyl)-N-(1,3-dicarboxypropyl)-3,5-difluorophenylsulfonamido)-N,N,N-trimethylpropan-1-aminium], the EC50 on h-TGR5 is 100 to 1000 nM; at human TGR5 (h-TGR5), < 100 nM.
With `COc1cc(C(C)(C)c2cnc(SCc3c(F)cc(S(=O)(=O)N(CCCC[N+](C)(C)C)C(C)(C)C(=O)O)cc3F)n2-c2ccc(F)cc2)ccc1Cl` [Compound 14ai, 4-(N-(2-carboxypropan-2-yl)-4-((5-(2-(4-chloro-3-methoxyphenyl)propan-2-yl)-1-(4-fluorophenyl)-1H-imidazol-2-ylthio)methyl)-3,5-difluorophenylsulfonamido)-N,N,N-trimethylbutan-1-aminium 2,2,2-trifluoroacetate], the EC50 on h-TGR5 and at human TGR5 (h-TGR5) was < 100 nM in each case.
